# Results reported in publication PMC6792352, “Limited Chemical Structural Diversity Found to Modulate Thyroid Hormone Receptor in the Tox21 Chemical Library” (Environmental Health Perspectives, 2019).
# Counter-ions that a name gives are not always drawn.
# Experiment: in vitro
# Conditions: rat, gh3-tre-luc cells, AC50 (uM) modified / 1000
row,SMILES,CC50 at 24 h
1,CC(=O)NCCO [N-(2-Hydroxyethyl)acetamide],> 90 µM
2,CCCCCCCCCCCCCCCC(=O)O[C@@H]1[C@@H](O)[C@@H](O)[C@@H]([C@H](NC(=O)[C@@H]2C[C@@H](CCC)CN2C)[C@H](C)Cl)O[C@@H]1SC [Clindamycin palmitate hydrochloride],> 50 µM
3,"Cc1cccc(C)c1N [2,6-Dimethylaniline]",> 90 µM
4,"C1CCC2(CCCCO2)OC1 [1,7-Dioxaspiro[5.5]undecane]",> 90 µM
5,CCC#N [Propionitrile],> 100 µM
6,CCSC(=O)N1CCCCCC1 [Molinate],> 90 µM
7,CCn1cc(C(=O)O)c(=O)c2cnc(N3CCCC3)nc21 [Piromidic acid],> 20 µM
8,COc1cccc2sc(N)nc12 [2-Amino-4-methoxybenzothiazole],> 90 µM
9,CC(=O)CCc1ccc(OC(C)=O)cc1 [4-(4-(Acetyloxy)phenyl)-2-butanone],> 90 µM
10,C=C(C)C(=O)OC(C)C [Isopropyl methacrylate],> 90 µM
11,Cc1ccc(S(=O)(=O)NC(=O)NN2CC3CCC[C@@H]3C2)cc1 (stereo in doubt) [Gliclazide],> 20 µM
12,CN1CCN(c2c(F)cc3c(=O)c(C(=O)O)cn(CCF)c3c2F)CC1 [Fleroxacin],> 50 µM
13,Sc1ncccn1 [Pyrimidine-2-thiol],> 90 µM
14,CNCCC=C1c2ccccc2CCc2ccccc21 [Nortriptyline hydrochloride],12.6 µM
15,CCC(Cc1ccccc1)(C(=O)c1ccc(N2CCOCC2)cc1)N(C)C (centres unmarked) [2-Benzyl-2-(dimethylamino)-1-[4-(morpholin-4-yl)phenyl]butan-1-one],68.2 µM
16,Cc1oc2c(NC(=O)c3c(Cl)cccc3Cl)cccc2c1C(C)(C)O [FR167356],19.6 µM
17,"CCN(CC)c1ccccc1 [N,N-Diethylaniline]",> 90 µM
18,CC(C)NCC(O)COc1ccc(CCOCC2CC2)cc1 (centres unmarked) [Betaxolol],> 50 µM
19,"Cc1cc(C)n(CO)n1 [(3,5-Dimethyl-1H-pyrazol-1-yl)methanol]",> 90 µM
20,Nc1nc(-c2ccc([N+](=O)[O-])cc2)cs1 [2-Amino-4-(p-nitrophenyl)thiazole],> 90 µM
21,CCCN1CCC[C@H](c2cccc(O)c2)C1 [R-3-PPP hydrochloride],> 50 µM
22,O=C(O)c1cc(N=Nc2ccc([N+](=O)[O-])cc2)ccc1O [Alizarin Yellow R],58 µM
23,CC(C)CCCCCOC(=O)c1ccccc1C(=O)OCCCCCC(C)C [Diisooctyl phthalate],> 90 µM
24,NC[C@@H]1CC[C@@H](N)[C@@H](O[C@H]2[C@H](O)[C@@H](O[C@H]3O[C@H](CO)[C@@H](O)[C@H](N)[C@H]3O)[C@H](N)C[C@@H]2N)O1 [Dibekacin],> 50 µM

row,SMILES,CC50 at 24 h
1,CC(C(=O)O)c1ccc2c(c1)[nH]c1ccc(Cl)cc12 (centres unmarked) [Carprofen],> 50 µM
2,"Cc1ccc(O)c(C)c1 [2,4-Dimethylphenol]",> 90 µM
3,Cc1cn([C@H]2C=C[C@@H](CO)O2)c(=O)[nH]c1=O [Stavudine],> 90 µM
4,CCOc1cccc(-n2cc(C(=O)N3CCN(c4cc(C(=O)O)c5ccccc5c4)CC3)nc2-c2ccc(C)cc2)c1 [PharmaGSID_47337],77.9 µM
5,O=C(O)c1nc(Cl)ccc1Cl [Clopyralid],> 90 µM
6,Cc1nnc(C(=O)NC(C)(C)c2nc(C(=O)NCc3ccc(F)cc3)c(O)c(=O)n2C)o1 [Raltegravir],> 50 µM
7,C#CCN(C)CCCOc1ccc(Cl)cc1Cl [Clorgyline hydrochloride],28.1 µM
8,O=Cc1ccc(F)c(Br)c1 [3-Bromo-4-fluorobenzaldehyde],> 90 µM
9,O=C(OC(=O)c1ccccc1)c1ccccc1 [Benzoic anhydride],> 90 µM
10,NC(=O)/N=N/C(N)=O [Azodicarbonamide],> 90 µM
11,CCCOC(=O)c1ccc(O)cc1 [Propylparaben],> 90 µM
12,CC#N [Acetonitrile],> 90 µM
13,c1ccc(C[n+]2cccc3ccccc32)cc1 [1-Benzylquinolinium chloride],> 90 µM
14,O=C1NCN(c2ccccc2)C12CCN(CC1COc3ccccc3O1)CC2 (centres unmarked) [Spiroxatrine],36.3 µM
15,Cc1onc(-c2c(F)cccc2Cl)c1C(=O)N[C@@H]1C(=O)N2[C@@H]1SC(C)(C)[C@@H]2C(=O)O [Floxacillin sodium salt],> 50 µM
16,NC(=O)c1ccc(N)cc1 [4-Aminobenzamide],> 90 µM
17,CCCC1C(=O)N2C(N(C)C)=Nc3ccc(C)cc3N2C1=O (centres unmarked) [Azapropazone],> 20 µM
18,CCCCCC/C=C\CCCCCCCC(=O)O [(Z)-Hexadec-9-enoic acid],> 90 µM
19,O=[N+]([O-])c1ccc2c3c(cccc13)CC2 [5-Nitroacenaphthene],> 90 µM
20,C[C@@H]1O[C@@H]1P(=O)(O)O [Fosfomycin calcium],> 50 µM
21,O=P(O)(O)C(O)(Cc1cnc2ccccn12)P(=O)(O)O [Minodronic acid],> 50 µM
22,"CCC(C)(C)CC [Pentane,3,3-dimethyl-]",> 100 µM
23,CO[C@@]1(NC(=O)[C@H](C(=O)O)c2ccc(O)cc2)C(=O)N2C(C(=O)O)=C(CSc3nnnn3C)CO[C@@H]21 [Moxalactam disodium],> 20 µM
24,CCOS(=O)(=O)OCC [Diethyl sulfate],> 90 µM

row,SMILES,CC50 at 24 h
1,"CC1=NN(c2ccc(S(=O)(=O)O)cc2)C(=O)C1 [4-(3-Methyl-5-oxo-4,5-dihydro-1H-pyrazol-1-yl)benzenesulfonic acid]",> 90 µM
2,CS(=O)(=O)c1ccc(C(=O)C2C(=O)CCCC2=O)c(Cl)c1COCC(F)(F)F [Tembotrione],> 90 µM
3,C=CC(OCC)OCC [Acrolein diethylacetal],> 90 µM
4,CC(C)c1ccc(C(=O)NC(=N)N)cc1S(C)(=O)=O [Cariporide mesylate],> 70 µM
5,"CCCCC(CC)CCC(CC(C)C)OS(=O)(=O)O (centres unmarked) [7-Ethyl-2-methyl-4-undecanolsulfate, sodium salt]",> 90 µM
6,CN1CCN(C2=Nc3cc(Cl)ccc3Nc3ccccc32)CC1 [Clozapine],15.9 µM
7,N=c1c[n+](N2CCOCC2)[n-]o1 [3-Morpholinosydnonimine hydrochloride],> 50 µM
8,Cc1c(C)n(CCN(C)C)c2ccc(C(=O)OCCN(C)C)cc12 [Amindocate],34.1 µM
9,"O=C1Cc2ccccc2N1c1c(Cl)cccc1Cl [1-(2,6-Dichlorophenyl)-2-indolinone]",> 90 µM
10,CC(=O)CC(=O)Nc1ccc(S(=O)(=O)O)cc1 [Potassium 4-[(3-oxobutanoyl)amino]benzenesulfonate],> 90 µM
11,Cc1occc1S [2-Methyl-3-furanthiol],> 90 µM
12,CO[C@@]1(NC(=O)C2SC(=C(C(N)=O)C(=O)O)S2)C(=O)N2C(C(=O)O)=C(CSc3nnnn3C)CS[C@@H]21 (some centres unmarked) [Cefotetan],> 20 µM
13,CC(=O)N(CC(O)CN(C(C)=O)c1c(I)c(C(=O)NC[C@@H](O)CO)c(I)c(C(=O)NC[C@@H](O)CO)c1I)c1c(I)c(C(=O)NC[C@@H](O)CO)c(I)c(C(=O)NC[C@@H](O)CO)c1I [Iodixanol],> 20 µM
14,O=[N+]([O-])c1ccc(O)cc1C(F)(F)F [3-Trifluoromethyl-4-nitrophenol],41.4 µM
15,COc1ccccc1OC(=O)Oc1ccccc1OC [Guaiacol carbonate],> 50 µM
16,CN(C)C(=O)C(CCN1CCC(O)(c2ccc(Cl)cc2)CC1)(c1ccccc1)c1ccccc1 [Loperamide],6.34 µM
17,CC(O)(c1ccc(Cl)cc1)c1ccc(Cl)cc1 [Chlorfenethol],76.2 µM
18,C[C@H](N)[C@H](O)c1cccc(O)c1 [Metaraminol bitartrate],> 20 µM
19,CN[C@@H]1[C@H](O)[C@H](NC)[C@H]2O[C@@]3(O)C(=O)C[C@@H](C)O[C@H]3O[C@@H]2[C@H]1O [Spectinomycin dihydrochloride],> 20 µM
20,CCCCOC(=O)CC(CC(=O)OCCCC)(OC(C)=O)C(=O)OCCCC [Acetyl tributyl citrate],> 90 µM
21,O=[N+]([O-])c1cccc(CCl)c1 [3-Nitrobenzyl chloride],> 90 µM
22,NCc1ccc(S(N)(=O)=O)cc1 [Mafenide hydrochloride],> 20 µM
23,C1CCCCCCCCCCC1 [Cyclododecane],> 20 µM

# Same assay, conditions: rat, gh3-tre-luc cells, AC50 (uM) modified / 1000, Tox21_110001=Tox21_111817; viability, 1 nM T3 present, 24 h
row,SMILES,CC50 at 24 h
1,O=C1C[N+]([O-])=C(c2ccccc2)c2cc(Cl)ccc2N1 [Demoxepam],> 50 µM

# Same assay, conditions: rat, gh3-tre-luc cells, AC50 (uM) modified / 1000, Tox21_110001=Tox21_112022; viability, 1 nM T3 present, 24 h
row,SMILES,CC50 at 24 h
1,C[C@@H](CO)NC(=O)[C@@H]1C=C2c3cccc4[nH]cc(c34)C[C@H]2N(C)C1 [Ergonovine],> 50 µM

# Same assay, conditions: rat, gh3-tre-luc cells, AC50 (uM) modified / 1000, Tox21_110001=Tox21_112166; viability, 1 nM T3 present, 24 h
row,SMILES,CC50 at 24 h
1,CC1NCCOC1c1ccccc1 (centres unmarked) [Phenmetrazine hydrochloride],> 50 µM

# Same assay, conditions: rat, gh3-tre-luc cells, AC50 (uM) modified / 1000, Tox21_110001=Tox21_112832; viability, 1 nM T3 present, 24 h
row,SMILES,CC50 at 24 h
1,CCC(=O)OC1(c2ccccc2)CCN(C)CC1 [1-Methyl-4-phenyl-4-propionoxypiperidine hydrochloride],> 100 µM

# Same assay, conditions: rat, gh3-tre-luc cells, AC50 (uM) modified / 1000, Tox21_110001=Tox21_200822; viability, 1 nM T3 present, 24 h
row,SMILES,CC50 at 24 h
1,C[N+](=O)[O-] [Nitromethane],> 90 µM

# Same assay, conditions: rat, gh3-tre-luc cells, AC50 (uM) modified / 1000, Tox21_110001=Tox21_201715; viability, 1 nM T3 present, 24 h
row,SMILES,CC50 at 24 h
1,CCCCCCCCCl [1-Chlorooctane],> 90 µM

# Same assay, conditions: rat, gh3-tre-luc cells, AC50 (uM) modified / 1000, Tox21_110001=Tox21_201783; viability, 1 nM T3 present, 24 h
row,SMILES,CC50 at 24 h
1,C/C=C/c1ccc2c(c1)OCO2 [Isosafrole],> 90 µM

# Same assay, conditions: rat, gh3-tre-luc cells, AC50 (uM) modified / 1000, Tox21_110001=Tox21_201788; viability, 1 nM T3 present, 24 h
row,SMILES,CC50 at 24 h
1,CC(C#N)CCC#N (centres unmarked) [2-Methylpentanedinitrile],> 90 µM

# Same assay, conditions: rat, gh3-tre-luc cells, AC50 (uM) modified / 1000, Tox21_110001=Tox21_301323; viability, 1 nM T3 present, 24 h
row,SMILES,CC50 at 24 h
1,CC(C)c1ccc(O)cc1 [4-Isopropylphenol],> 90 µM
